Legend:
Type in all cases: biochemical
Conditions in all cases: 300-350 nM
KDR (VEGFR2) = KDR (VEGFR2) (Homo sapiens (Human), UniProt P35968); assay: SelectScreen Kinase Profiling: KDR
Source text: (§1) Table 2 below highlights the selectivity of a representative compound of the invention against a panel of 50 kinases (assessed using the Invitrogen SelectScreen® Kinase Profiling Service).

DYRK3 = DYRK3 (Homo sapiens (Human), UniProt O43781); assay: SelectScreen Kinase Profiling: DYRK3
Source text: as §1

FLT3 = FLT3 (Homo sapiens (Human), UniProt P36888); assay: SelectScreen Kinase Profiling: FLT3
Source text: as §1

AKT1 (PKB alpha) = AKT1 (PKB alpha) (Homo sapiens (Human), UniProt P31749); assay: SelectScreen Kinase Profiling: AKT1
Source text: as §1

RPS6KA3 (RSK2) = RPS6KA3 (RSK2) (Homo sapiens (Human), UniProt P51812); assay: SelectScreen Kinase Profiling: RPS6KA3
Sequence of RPS6KA3 (RSK2) (P51812 whole entry): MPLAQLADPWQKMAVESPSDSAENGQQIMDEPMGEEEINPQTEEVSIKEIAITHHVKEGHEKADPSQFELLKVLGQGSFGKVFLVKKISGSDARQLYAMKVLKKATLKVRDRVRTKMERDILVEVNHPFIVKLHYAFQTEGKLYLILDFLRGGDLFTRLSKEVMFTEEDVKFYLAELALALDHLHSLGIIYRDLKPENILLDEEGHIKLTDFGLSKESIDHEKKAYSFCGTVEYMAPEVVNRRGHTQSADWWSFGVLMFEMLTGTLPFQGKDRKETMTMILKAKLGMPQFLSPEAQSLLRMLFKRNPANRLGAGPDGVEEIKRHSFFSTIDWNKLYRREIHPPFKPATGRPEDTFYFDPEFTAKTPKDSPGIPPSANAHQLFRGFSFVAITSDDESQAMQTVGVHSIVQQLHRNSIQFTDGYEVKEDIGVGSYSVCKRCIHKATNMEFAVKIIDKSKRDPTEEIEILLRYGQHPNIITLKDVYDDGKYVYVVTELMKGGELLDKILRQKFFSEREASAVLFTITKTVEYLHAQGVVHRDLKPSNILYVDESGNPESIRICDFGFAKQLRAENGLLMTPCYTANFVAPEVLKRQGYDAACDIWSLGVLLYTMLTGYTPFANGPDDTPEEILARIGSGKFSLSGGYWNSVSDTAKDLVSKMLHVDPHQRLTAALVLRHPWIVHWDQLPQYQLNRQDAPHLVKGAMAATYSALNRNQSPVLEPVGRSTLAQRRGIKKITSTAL

Sequence of FLT3 (P36888 27-993): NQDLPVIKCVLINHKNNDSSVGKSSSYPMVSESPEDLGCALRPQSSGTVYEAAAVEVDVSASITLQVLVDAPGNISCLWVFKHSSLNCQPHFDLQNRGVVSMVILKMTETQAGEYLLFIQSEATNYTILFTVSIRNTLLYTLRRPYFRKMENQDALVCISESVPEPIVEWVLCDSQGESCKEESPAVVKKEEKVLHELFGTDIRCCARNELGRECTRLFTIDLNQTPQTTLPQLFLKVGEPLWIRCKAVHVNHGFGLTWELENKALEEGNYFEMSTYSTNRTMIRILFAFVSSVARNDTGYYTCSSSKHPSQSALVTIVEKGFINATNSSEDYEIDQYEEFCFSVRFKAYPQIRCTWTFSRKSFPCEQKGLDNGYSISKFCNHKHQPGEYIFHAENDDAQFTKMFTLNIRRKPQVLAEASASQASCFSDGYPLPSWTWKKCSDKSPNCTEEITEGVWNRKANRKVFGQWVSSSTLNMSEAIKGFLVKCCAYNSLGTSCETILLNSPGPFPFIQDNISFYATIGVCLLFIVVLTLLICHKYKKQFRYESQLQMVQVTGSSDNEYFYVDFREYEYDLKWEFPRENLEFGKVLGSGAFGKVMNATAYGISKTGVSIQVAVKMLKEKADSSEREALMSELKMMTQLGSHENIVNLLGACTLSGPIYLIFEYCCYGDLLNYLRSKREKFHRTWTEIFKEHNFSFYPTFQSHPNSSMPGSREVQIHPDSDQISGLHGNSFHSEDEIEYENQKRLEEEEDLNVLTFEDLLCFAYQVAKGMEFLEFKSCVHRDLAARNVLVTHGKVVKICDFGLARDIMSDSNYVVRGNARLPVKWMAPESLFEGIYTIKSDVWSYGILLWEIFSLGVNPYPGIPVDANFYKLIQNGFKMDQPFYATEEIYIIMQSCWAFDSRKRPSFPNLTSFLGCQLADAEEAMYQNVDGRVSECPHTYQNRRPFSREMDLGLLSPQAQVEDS
Sequence of DYRK3 (O43781 whole entry): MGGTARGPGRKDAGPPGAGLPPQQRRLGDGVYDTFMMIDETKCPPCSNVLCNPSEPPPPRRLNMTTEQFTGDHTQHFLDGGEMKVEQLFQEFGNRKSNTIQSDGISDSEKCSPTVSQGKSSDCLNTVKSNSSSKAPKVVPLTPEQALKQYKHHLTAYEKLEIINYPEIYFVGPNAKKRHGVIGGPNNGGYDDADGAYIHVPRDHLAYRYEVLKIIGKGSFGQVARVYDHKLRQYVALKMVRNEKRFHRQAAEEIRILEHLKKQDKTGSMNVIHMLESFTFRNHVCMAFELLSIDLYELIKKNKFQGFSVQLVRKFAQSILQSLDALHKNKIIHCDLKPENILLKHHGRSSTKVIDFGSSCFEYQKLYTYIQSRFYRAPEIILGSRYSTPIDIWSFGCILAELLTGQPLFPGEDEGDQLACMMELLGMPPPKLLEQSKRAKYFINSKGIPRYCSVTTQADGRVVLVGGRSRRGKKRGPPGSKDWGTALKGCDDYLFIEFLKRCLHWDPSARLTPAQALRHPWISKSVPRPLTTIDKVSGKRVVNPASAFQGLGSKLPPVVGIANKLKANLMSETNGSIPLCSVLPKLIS
Sequence of KDR (VEGFR2) (P35968 20-1356): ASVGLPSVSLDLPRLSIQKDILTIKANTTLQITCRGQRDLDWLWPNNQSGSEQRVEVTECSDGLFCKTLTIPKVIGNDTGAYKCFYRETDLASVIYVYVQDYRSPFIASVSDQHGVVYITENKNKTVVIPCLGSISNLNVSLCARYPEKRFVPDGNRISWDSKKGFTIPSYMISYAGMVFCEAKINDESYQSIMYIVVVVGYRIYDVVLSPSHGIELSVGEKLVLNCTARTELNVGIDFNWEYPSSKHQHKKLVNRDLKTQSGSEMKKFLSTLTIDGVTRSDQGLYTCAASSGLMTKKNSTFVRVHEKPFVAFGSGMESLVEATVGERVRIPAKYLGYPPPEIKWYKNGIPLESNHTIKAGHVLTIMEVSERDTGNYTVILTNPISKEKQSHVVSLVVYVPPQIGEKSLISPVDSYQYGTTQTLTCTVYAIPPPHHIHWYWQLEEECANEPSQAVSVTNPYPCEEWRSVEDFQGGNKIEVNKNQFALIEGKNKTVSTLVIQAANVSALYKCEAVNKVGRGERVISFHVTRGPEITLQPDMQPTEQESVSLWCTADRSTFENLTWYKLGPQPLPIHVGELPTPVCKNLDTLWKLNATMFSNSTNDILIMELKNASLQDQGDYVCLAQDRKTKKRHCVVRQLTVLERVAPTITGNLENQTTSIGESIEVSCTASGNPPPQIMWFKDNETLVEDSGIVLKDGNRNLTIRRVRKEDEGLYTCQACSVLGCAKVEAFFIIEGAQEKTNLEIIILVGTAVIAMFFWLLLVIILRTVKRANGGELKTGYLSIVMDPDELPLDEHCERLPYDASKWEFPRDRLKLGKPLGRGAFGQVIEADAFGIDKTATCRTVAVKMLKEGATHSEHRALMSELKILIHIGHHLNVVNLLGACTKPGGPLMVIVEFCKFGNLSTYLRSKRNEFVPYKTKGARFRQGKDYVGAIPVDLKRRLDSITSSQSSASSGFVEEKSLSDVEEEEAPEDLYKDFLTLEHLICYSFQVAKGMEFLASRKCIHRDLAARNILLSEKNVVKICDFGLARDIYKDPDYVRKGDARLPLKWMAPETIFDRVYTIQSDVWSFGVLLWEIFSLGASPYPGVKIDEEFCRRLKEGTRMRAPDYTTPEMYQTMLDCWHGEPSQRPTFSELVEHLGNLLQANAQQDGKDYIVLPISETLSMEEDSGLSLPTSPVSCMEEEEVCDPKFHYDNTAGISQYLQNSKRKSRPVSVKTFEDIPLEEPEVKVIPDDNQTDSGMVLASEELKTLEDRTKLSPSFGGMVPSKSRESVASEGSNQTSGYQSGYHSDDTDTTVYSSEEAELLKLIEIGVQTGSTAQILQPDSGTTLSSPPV
Sequence of AKT1 (PKB alpha) (P31749 whole entry): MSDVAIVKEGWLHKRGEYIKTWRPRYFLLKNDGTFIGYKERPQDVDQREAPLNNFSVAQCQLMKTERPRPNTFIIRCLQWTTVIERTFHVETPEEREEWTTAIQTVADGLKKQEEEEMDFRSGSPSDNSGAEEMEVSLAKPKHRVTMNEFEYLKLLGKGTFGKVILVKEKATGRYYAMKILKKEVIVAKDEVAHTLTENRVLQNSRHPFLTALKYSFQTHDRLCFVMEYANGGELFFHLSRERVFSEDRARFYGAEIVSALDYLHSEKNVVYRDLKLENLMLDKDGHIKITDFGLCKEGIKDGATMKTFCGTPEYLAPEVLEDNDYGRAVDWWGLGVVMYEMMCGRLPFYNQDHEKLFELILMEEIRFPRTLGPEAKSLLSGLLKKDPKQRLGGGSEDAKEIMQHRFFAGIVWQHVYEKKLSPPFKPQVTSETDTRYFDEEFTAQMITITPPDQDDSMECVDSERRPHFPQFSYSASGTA

O=c1c2cnc(Nc3ccc(N4CCNCC4)cc3)nc2ccn1-c1c(Cl)cccc1Cl [Example 1, 6-(2,6-Dichlorophenyl)-2-((4-(piperazin-1-yl)phenyl)amino)pyrido[4,3-d]pyrimidin-5(6H)-one]
− (Inhibition <75% @ 300-350 nM): Inhibition KDR (VEGFR2) (KDR (VEGFR2)) | Inhibition DYRK3 (DYRK3) | Inhibition FLT3 (FLT3) | Inhibition AKT1 (PKB alpha) (AKT1 (PKB alpha)) | Inhibition RPS6KA3 (RSK2) (RPS6KA3 (RSK2))
